Experimental data reported in US7300664B1, “Vaginally administrable progesterone-containing tablets and method for preparing same” (Ferring B.V., priority 1998, dated 2007).
Where two headings read alike, the source gives them in different places.

Assays:
[1] = Clinical use: twice-daily vaginal tablets, blood samples on days 14 and 30 (Example 4); assay type: in vivo, women; conditions: female, human, serum, other: vaginal, fasting morning sample, read-out: Blood Progesterone levels
Description: The pharmacokinetics and clinical use of tablets prepared in accordance with the invention were evaluated as follows: 50 healthy, post-menopausal women with intact uteri, 39 of whom had suffered premature menopause and 11 who were truly postmenopausal, all of whom were undergoing hormone replacement therapy (HRT), submitted blood samples for determination of baseline profiles of hormones (progesterone and other hormones) and other biochemicals (bilirubin, cholesterol, etc.). The blood samples were taken at 8 AM on the first day of the evaluation (day 0) in a fasting state, by intravenous indwelling catheter which was introduced into the cubital vein. Non-estrogen primed postmenopausal women were chosen in order to avoid confusion with endogenous progesterone secretion and estrogen influence on vaginal mucosa absorption (Villanueva et al., Fertil. Steril. 35 (1981), 433-437). To evaluate clinical use of the drug, the women were instructed to insert tablets prepared in accordance with the present invention, containing the same dose as administered on day 0, twice daily starting on day 1, and to […] for 20 minutes after each insertion. On days 14 and 30, blood samples for comparison with the baseline were drawn in the morning while the subjects were in a fasting state. Of the 50 women who participated in the evaluation, 20 were allocated tablets containing 50 mg progesterone, and the remainder of the participants received tablets containing 100 mg progesterone.

[2] = Single-dose pharmacokinetics of progesterone vaginal tablets in post-menopausal women (Example 4, day 0); assay type: in vivo; conditions: single vaginal tablet, mean; for Tmax / half-life: female, human, serum; for half-life: read-out: T1/2 (mean elimination half-life) (converted); for Cmax: read-out: Cmax (maximal serum concentration)
Description: The pharmacokinetics and clinical use of tablets prepared in accordance with the invention were evaluated as follows: 50 healthy, post-menopausal women with intact uteri, 39 of whom had suffered premature menopause and 11 who were truly postmenopausal, all of whom were undergoing hormone replacement therapy (HRT), submitted blood samples for determination of baseline profiles of hormones (progesterone and other hormones) and other biochemicals (bilirubin, cholesterol, etc.). The blood samples were taken at 8 AM on the first day of the evaluation (day 0) in a fasting state, by intravenous indwelling catheter which was introduced into the cubital vein. Non-estrogen primed postmenopausal women were chosen in order to avoid confusion with endogenous progesterone secretion and estrogen influence on vaginal mucosa absorption (Villanueva et al., Fertil. Steril. 35 (1981), 433-437). The women then self-administered the progesterone vaginal tablet using a plastic applicator and lay down for 20 minutes. Repeat blood samples for progesterone concentration were withdrawn 0.5, 1, 2, 4, 6, 8, 10, 12 and 24 hours after the vaginal insertion. Blood was allowed to clot at room temperature for 1 hour, after which the serum was separated by centrifugation and stored at −20° C. until analysis. Of the 50 women who participated in the evaluation, 20 were allocated tablets containing 50 mg progesterone, and the remainder of the participants received tablets containing 100 mg progesterone. […] The mean […] (Tmax), mean elimination half-life (T1/2), maximal serum concentration (Cmax), and AUC (area under the curve, i.e. total amount of plasma progesterone observed) derived from the blood samples taken on day 0 of the evaluation are summarized in Table II.

[3] = 50 mg progesterone, 20 subjects
[4] = 100 mg progesterone, 30 subjects

`CC(=O)[C@H]1CC[C@H]2[C@@H]3CCC4=CC(=O)CC[C@]4(C)[C@H]3CC[C@]12C` [Progesterone, progesterone] showed a concentration at 14 day ([1]; 50 mg twice daily, Day 14, 50 mg tablet twice daily, 20 subjects) of 17.5 nM, a concentration at 30 day ([1]; 50 mg twice daily, Day 30, 50 mg tablet twice daily, 20 subjects) of 17.4 nM and a concentration at 14 day ([1]; 100 mg twice daily, Day 14, 100 mg tablet twice daily, 30 subjects) of 26.1 nM. For the same compound, the concentration at 30 day ([1]; 100 mg twice daily, Day 30, 100 mg tablet twice daily, 30 subjects) was 21.4 nM, the Tmax [2, 3] was 6.1 h and the half-life [2, 3] was 13.2 h. The Tmax [2, 4] was 6.4 h, the half-life [2, 4] was 13.7 h and the “AUC (area under the curve)” value [2, 3] was 154.15 nmol/h/L. The Cmax [2, 3] was 20.4 nM, the Cmax ([2]; 100 mg progesterone, 30 subjects, P = 0.0004) was 31.6 nM and the “AUC (area under the curve)” value ([2]; 100 mg progesterone, 30 subjects, P = 0.001) was 247.61 nmol/h/L.
